Key:
Test in all cases: Ray2010 Assay 74
[1] = molecular target: 5-hydroxytryptamine receptor 7 (Homo sapiens, UniProt P34969)
Excerpt: (§1) Table S2 shows raw Ki data for the current study combined with data collected from the literature for the ten additional compounds.

[2] = molecular target: Beta-2 adrenergic receptor (Homo sapiens, UniProt P07550)
Excerpt: as §1

Cannabinoid receptor 1 = Cannabinoid receptor 1 (Homo sapiens, UniProt P21554)
Excerpt: as §1

[3] = molecular target: T1, 5-hydroxytryptamine receptor 2C (Homo sapiens, UniProt P28335)
T1 sequence (P28335 whole entry): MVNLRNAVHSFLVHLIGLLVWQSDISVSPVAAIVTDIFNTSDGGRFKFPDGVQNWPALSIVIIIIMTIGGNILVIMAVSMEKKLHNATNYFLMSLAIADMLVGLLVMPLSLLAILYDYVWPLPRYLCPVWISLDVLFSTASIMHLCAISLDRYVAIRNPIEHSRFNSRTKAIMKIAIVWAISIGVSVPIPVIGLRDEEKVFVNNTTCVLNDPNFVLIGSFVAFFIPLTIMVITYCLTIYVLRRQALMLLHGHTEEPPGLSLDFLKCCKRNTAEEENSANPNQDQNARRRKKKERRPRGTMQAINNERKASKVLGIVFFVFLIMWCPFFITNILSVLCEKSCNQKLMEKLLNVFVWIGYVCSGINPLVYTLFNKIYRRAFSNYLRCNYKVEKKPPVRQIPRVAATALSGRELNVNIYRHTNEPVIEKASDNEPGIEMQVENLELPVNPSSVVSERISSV
Excerpt: as §1

[4] = molecular target: T2, Prostaglandin E2 receptor EP3 subtype (Homo sapiens, UniProt P43115)
T2 sequence (P43115 whole entry): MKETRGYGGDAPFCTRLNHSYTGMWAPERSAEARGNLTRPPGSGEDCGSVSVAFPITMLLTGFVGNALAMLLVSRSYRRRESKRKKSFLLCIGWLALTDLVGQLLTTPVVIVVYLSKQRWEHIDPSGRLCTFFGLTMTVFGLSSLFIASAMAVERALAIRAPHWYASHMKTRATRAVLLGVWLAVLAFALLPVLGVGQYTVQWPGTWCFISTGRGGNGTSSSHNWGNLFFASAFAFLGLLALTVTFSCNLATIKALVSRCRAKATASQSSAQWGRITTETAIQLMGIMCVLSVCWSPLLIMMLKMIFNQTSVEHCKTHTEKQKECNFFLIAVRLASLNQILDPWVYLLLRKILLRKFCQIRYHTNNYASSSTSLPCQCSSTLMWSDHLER
Excerpt: as §1

[5] = molecular target: T3, Muscarinic acetylcholine receptor M4 (Homo sapiens, UniProt P08173)
T3 sequence (P08173 whole entry): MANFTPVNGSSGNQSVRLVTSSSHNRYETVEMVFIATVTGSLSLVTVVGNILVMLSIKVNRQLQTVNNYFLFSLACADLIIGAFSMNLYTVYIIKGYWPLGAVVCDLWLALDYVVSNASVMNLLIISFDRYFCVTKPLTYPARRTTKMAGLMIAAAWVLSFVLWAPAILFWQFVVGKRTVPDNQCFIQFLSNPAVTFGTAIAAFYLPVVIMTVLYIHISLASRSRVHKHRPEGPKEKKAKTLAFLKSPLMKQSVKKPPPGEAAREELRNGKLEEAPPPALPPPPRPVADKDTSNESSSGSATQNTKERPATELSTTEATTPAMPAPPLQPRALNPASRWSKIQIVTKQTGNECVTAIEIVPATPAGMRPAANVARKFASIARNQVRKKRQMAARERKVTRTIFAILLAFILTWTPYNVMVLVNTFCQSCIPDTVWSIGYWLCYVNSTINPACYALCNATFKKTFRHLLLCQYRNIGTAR
Excerpt: as §1

[6] = molecular target: Sigma non-opioid intracellular receptor 1 (Homo sapiens, UniProt Q99720)
Excerpt: as §1

[7] = molecular target: Neuronal acetylcholine receptor subunit alpha-4/beta-4 (Homo sapiens, UniProt P30926+P43681)
Excerpt: as §1

[8] = molecular target: Neuronal acetylcholine receptor subunit alpha-4/beta-2 (Homo sapiens, UniProt P17787+P43681)
Excerpt: as §1

[9] = molecular target: Neuronal acetylcholine receptor subunit alpha-2/beta-2 (Homo sapiens, UniProt P17787+Q15822)
Excerpt: as §1

[10] = molecular target: Neuronal acetylcholine receptor subunit alpha-4/beta-2 (Mus musculus, UniProt O70174+Q9ERK7)
Excerpt: as §1

[11] = molecular target: Neuronal acetylcholine receptor subunit alpha-3/beta-2 (Homo sapiens, UniProt P17787+P32297)
Excerpt: as §1

[12] = molecular target: Neuronal acetylcholine receptor subunit alpha-2/beta-4 (Homo sapiens, UniProt P30926+Q15822)
Excerpt: as §1

Glutamate receptor 4 = Glutamate receptor 4 (Homo sapiens, UniProt P48058)
Excerpt: as §1

[13] = molecular target: Metabotropic glutamate receptor 1 (Homo sapiens, UniProt Q13255)
Excerpt: as §1

[14] = molecular target: Metabotropic glutamate receptor 4 (Homo sapiens, UniProt Q14833)
Excerpt: as §1

[15] = molecular target: Metabotropic glutamate receptor 5 (Homo sapiens, UniProt P41594)
Excerpt: as §1

[16] = molecular target: Metabotropic glutamate receptor 2 (Homo sapiens, UniProt Q14416)
Excerpt: as §1

[17] = molecular target: Metabotropic glutamate receptor 8 (Homo sapiens, UniProt O00222)
Excerpt: as §1

[18] = molecular target: Metabotropic glutamate receptor 6 (Homo sapiens, UniProt O15303)
Excerpt: as §1

Metabotropic glutamate receptor 6, sequence (O15303 whole entry): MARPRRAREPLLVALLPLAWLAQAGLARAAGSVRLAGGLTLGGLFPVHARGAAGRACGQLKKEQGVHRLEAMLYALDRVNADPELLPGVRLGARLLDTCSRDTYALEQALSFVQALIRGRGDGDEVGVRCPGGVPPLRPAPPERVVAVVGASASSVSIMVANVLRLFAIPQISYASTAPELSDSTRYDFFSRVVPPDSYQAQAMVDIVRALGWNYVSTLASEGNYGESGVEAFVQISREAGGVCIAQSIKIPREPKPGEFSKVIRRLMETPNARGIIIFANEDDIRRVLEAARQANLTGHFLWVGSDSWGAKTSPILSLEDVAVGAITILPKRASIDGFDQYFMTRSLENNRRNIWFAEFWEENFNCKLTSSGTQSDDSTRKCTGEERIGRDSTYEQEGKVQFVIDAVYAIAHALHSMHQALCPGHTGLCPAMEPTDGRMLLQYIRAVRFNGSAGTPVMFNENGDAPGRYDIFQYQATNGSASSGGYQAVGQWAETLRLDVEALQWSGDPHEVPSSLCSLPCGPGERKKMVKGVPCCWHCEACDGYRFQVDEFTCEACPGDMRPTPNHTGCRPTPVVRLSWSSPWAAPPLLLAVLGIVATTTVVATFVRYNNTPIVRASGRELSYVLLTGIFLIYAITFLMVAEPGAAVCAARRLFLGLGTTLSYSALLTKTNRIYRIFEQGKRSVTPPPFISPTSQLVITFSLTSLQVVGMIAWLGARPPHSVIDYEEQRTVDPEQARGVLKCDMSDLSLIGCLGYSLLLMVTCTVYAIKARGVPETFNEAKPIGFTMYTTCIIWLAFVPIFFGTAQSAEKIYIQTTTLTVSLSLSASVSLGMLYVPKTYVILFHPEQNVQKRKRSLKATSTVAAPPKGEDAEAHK
Metabotropic glutamate receptor 2, sequence (Q14416 whole entry): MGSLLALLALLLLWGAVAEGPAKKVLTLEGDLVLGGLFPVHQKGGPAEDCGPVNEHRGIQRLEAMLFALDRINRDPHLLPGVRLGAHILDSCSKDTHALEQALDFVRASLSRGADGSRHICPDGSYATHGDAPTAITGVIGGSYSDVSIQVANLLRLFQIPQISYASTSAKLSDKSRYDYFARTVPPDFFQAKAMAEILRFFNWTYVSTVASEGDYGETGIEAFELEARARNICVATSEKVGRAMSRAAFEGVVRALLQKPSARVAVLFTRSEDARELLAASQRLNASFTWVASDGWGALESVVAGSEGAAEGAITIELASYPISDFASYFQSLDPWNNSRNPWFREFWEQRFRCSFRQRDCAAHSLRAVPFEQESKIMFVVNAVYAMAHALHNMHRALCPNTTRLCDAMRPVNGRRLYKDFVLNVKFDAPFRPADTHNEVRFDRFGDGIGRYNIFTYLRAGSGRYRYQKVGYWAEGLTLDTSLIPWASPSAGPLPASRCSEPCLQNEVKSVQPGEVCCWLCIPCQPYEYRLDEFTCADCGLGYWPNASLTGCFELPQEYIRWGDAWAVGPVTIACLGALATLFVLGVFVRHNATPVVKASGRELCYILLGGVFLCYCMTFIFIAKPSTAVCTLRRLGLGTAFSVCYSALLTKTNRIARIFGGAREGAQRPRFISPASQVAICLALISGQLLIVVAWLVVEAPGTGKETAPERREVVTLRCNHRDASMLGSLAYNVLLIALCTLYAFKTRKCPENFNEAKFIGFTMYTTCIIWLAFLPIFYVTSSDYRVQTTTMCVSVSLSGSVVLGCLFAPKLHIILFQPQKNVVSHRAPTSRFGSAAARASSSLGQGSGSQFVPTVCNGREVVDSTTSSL
Neuronal acetylcholine receptor subunit alpha-4/beta-2 (Homo sapiens, UniProt P17787+P43681), sequence (P43681 whole entry): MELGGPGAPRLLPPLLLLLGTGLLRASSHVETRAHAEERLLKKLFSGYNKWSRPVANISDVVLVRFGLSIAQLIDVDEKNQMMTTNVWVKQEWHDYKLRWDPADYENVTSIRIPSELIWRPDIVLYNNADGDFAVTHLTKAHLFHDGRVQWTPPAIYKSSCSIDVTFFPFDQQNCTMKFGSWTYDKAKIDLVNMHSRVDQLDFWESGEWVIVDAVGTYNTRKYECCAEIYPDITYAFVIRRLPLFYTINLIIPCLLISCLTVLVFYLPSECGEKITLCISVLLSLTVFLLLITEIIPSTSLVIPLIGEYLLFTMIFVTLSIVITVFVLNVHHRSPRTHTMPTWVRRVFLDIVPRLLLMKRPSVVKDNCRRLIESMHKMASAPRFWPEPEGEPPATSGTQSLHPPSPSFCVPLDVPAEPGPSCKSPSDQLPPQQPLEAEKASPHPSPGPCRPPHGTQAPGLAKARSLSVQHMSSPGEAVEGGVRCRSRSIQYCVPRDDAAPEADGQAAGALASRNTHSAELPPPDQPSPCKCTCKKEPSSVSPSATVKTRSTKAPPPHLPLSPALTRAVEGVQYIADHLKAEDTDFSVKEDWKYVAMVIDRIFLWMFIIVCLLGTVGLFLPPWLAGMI
Neuronal acetylcholine receptor subunit alpha-4/beta-2 (Homo sapiens, UniProt P17787+P43681), sequence (P17787 whole entry): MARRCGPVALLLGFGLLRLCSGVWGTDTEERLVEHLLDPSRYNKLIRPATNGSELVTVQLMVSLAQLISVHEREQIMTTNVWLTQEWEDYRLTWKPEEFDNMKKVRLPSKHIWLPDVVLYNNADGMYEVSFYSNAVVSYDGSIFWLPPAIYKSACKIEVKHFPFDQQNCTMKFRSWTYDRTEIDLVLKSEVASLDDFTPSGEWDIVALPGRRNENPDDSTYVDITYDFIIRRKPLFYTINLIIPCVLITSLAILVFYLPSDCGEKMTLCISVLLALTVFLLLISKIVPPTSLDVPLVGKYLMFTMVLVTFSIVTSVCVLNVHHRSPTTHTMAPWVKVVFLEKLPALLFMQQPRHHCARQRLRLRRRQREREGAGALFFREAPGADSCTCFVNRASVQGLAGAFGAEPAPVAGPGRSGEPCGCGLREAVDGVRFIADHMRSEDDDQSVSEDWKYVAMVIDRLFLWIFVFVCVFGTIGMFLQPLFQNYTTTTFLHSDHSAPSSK
Neuronal acetylcholine receptor subunit alpha-4/beta-4, sequence (P43681 whole entry): as the sequence (P43681 whole entry) above
Neuronal acetylcholine receptor subunit alpha-4/beta-4, sequence (P30926 whole entry): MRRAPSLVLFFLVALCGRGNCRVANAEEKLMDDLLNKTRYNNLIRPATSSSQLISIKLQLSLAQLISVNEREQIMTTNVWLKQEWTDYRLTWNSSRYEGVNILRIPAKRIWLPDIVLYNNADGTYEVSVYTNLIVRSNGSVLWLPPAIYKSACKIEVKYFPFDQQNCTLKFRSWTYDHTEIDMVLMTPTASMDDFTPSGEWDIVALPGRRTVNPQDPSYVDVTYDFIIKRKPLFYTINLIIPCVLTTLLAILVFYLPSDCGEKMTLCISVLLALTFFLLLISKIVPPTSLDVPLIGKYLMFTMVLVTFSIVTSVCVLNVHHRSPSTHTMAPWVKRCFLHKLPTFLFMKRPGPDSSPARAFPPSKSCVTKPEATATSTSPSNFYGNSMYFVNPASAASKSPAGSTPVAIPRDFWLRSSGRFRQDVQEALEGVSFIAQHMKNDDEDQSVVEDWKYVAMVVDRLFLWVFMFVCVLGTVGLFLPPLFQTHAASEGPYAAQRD
Sigma non-opioid intracellular receptor 1, sequence (Q99720 whole entry): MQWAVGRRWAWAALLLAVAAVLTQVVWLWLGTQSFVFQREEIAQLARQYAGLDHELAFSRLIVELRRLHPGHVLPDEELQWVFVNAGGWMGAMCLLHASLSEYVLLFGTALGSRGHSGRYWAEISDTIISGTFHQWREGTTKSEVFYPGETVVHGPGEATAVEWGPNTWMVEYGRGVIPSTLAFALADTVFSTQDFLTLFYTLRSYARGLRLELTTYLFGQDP
Cannabinoid receptor 1, sequence (P21554 whole entry): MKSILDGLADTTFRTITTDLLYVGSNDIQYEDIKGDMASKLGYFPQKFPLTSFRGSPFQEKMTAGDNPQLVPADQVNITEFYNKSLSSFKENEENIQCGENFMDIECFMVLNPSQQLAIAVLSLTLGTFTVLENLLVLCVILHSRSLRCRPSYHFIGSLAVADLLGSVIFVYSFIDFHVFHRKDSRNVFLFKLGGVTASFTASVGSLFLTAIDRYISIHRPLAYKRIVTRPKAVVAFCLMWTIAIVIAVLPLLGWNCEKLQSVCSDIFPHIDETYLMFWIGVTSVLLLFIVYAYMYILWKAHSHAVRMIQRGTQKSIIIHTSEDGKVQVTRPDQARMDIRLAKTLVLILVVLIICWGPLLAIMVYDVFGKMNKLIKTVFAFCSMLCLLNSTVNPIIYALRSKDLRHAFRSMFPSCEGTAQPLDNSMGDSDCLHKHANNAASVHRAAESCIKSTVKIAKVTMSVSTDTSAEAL

Row | Compound | Ki [1] [µM] | Ki [2] [µM] | Ki (Cannabinoid receptor 1) [µM] | Ki [4] [µM] | Ki [5] [µM] | Ki [6] [µM] | further results
1 | CC(N)Cc1ccc2c(c1)OCO2 (stereo not drawn) | 3.55 | > 10 | > 10 | – | – | – | –
2 | CCOc1cc(OC)c(CC(C)N)cc1OC (stereo not drawn) | 7.16 | > 10 | > 10 | > 10 | > 10 | 5.08 | Ki [3]: > 10 µM
3 | COc1cc(CCN)c(OC)cc1Br | 0.209 | – | > 10 | > 10 | > 10 | > 10 | –
4 | CCSc1cc(OC)c(CC(N)CC)cc1OC (stereo not drawn) [1-(4-Ethylsulfanyl-2,5-dimethoxy-benzyl)-propylamine] | 3.83 | – | > 10 | > 10 | > 10 | 0.515 | –
5 | CN(C)CCc1c[nH]c2ccccc12 [2-(1H-indol-3-yl)-N,N-dimethylethanamine] | 0.0875 | > 10 | > 10 | – | > 10 | 5.21 | –
6 | CCc1cc(OC)c(CCN)cc1OC [2-(2,5-dimethoxy-4-ethylphenyl)ethylamine] | 0.426 | – | > 10 | > 10 | > 10 | – | –
7 | COc1cc(CC(C)N)c(OC)cc1Br (stereo not drawn) [2-(4-Bromo-2,5-dimethoxy-phenyl)-1-methyl-ethylamine((-)-DOB)] | 0.506 | – | > 10 | > 10 | > 10 | 2.19 | –
8 | CCSc1cc(OC)c(CC(C)N)cc1OC (stereo not drawn) [2-(4-Ethylsulfanyl-2,5-dimethoxy-phenyl)-1-methyl-ethylamine] | 1.32 | – | > 10 | > 10 | > 10 | 0.239 | –
9 | NCCc1c2c(c(Br)c3c1OCC3)OCC2 [2-(8-Bromo-2,3,6,7-tetrahydro-benzo[1,2-b;4,5-b']difuran-4-yl)-ethylamine] | – | > 10 | > 10 | – | 0.52 | > 10 | Ki [3]: 0.0106 µM; Ki [7]: > 10 µM; Ki [8]: > 10 µM; Ki [9]: > 10 µM; Ki [10]: > 10 µM; Ki [11]: > 10 µM; Ki [12]: > 10 µM
10 | CCc1[nH]c2ccc(OC)cc2c1CCN(C)C [2-ethyl-5-methoxy-N,N-dimethyltryptamine] | – | – | – | – | > 10 | – | Ki [7]: > 10 µM; Ki [8]: > 10 µM; Ki (Glutamate receptor 4): > 10 µM; Ki [9]: > 10 µM; Ki [10]: > 10 µM; Ki [11]: > 10 µM; Ki [12]: > 10 µM
11 | CCSc1cc(OC)c(CCN)cc1OC [2C-T-2] | – | – | > 10 | > 10 | > 10 | 3.87 | –
12 | COC(=O)[C@@H]1C[C@H](OC(C)=O)C(=O)[C@H]2[C@@]1(C)CC[C@H]1C(=O)O[C@H](c3ccoc3)C[C@]21C [2S,4aR,6a(R,7R,9S,10aS,10bR)-9-(acetyloxy)-2-(furan-3-yl)dodecahydro-6a,10b-dimethyl-4,10-dioxo-2H-naphtho[2,1-c]pyran-7-carboxylic acid methyl ester] | > 10 | > 10 | – | – | > 10 | – | Ki [3]: > 10 µM
13 | COc1cc(CCN)cc(OC)c1OC [3,4,5-trimethoxyphenylethylamine] | > 10 | > 10 | > 10 | > 10 | > 10 | > 10 | Ki [3]: > 10 µM
14 | COc1ccc2[nH]cc(CCN(C)C)c2c1 [3-(2-DIMETHYLAMINOETHYL)-5-METHOXYINDOLE] | – | > 10 | > 10 | – | > 10 | > 10 | –
15 | CN(C)CCc1c[nH]c2cccc(O)c12 [4-hydroxy-N,N-dimethyltryptamine] | – | > 10 | > 10 | – | > 10 | > 10 | –
16 | COc1ccc2[nH]cc(CCN(C(C)C)C(C)C)c2c1 [5-meo-dipt] | 1.23 | > 10 | > 10 | > 10 | > 10 | 9.44 | Ki [3]: > 10 µM
17 | COc1ccc2[nH]cc(CCN(C)C(C)C)c2c1 [5-meo-mipt] | 0.0198 | > 10 | – | > 10 | > 10 | > 10 | –
18 | CN(C)CCc1c[nH]c2cc(F)ccc12 [6-f-dmt] | 0.0408 | > 10 | > 10 | > 10 | > 10 | 6.89 | –
19 | COc1cc(OC)c(OC)cc1CC(C)N (stereo not drawn) [(+/-)1-Methyl-2-(2,4,5-trimethoxy-phenyl)-ethylamine] | > 10 | > 10 | – | – | – | – | –
20 | COc1cc(CC(C)N)c(OC)cc1C (stereo not drawn) [(+/-)2-(2,5-Dimethoxy-4-methyl-phenyl)-1-methyl-ethylamine] | 1.59 | – | > 10 | – | – | > 10 | Ki [7]: > 10 µM; Ki [8]: > 10 µM; Ki [9]: > 10 µM; Ki [10]: > 10 µM; Ki [11]: > 10 µM; Ki [12]: > 10 µM
21 | CCN(CC)C(=O)[C@@H]1C=C2c3cccc4[nH]cc(c34)C[C@H]2N(C)C1 [[N-methyl-3H]LSD] | – | – | – | – | – | – | Ki [13]: > 10 µM; Ki [14]: > 10 µM; Ki [7]: > 10 µM; Ki [15]: > 10 µM; Ki [16]: > 10 µM; Ki [8]: > 10 µM; Ki [9]: > 10 µM; Ki [10]: > 10 µM; Ki [11]: > 10 µM; Ki [17]: > 10 µM; Ki [12]: > 10 µM; Ki [18]: > 10 µM
22 | C[C@@H]1C[C@H](C)N1C(=O)C1C=C2c3cccc4[nH]cc(c34)C[C@H]2N(C)C1 (stereo partly drawn) [cis-2a] | – | – | – | – | – | – | Ki [13]: > 10 µM; Ki [14]: > 10 µM; Ki [7]: > 10 µM; Ki [15]: > 10 µM; Ki [16]: > 10 µM; Ki [8]: > 10 µM; Ki [9]: > 10 µM; Ki [10]: > 10 µM; Ki [11]: > 10 µM; Ki [17]: > 10 µM; Ki [12]: > 10 µM; Ki [18]: > 10 µM
23 | CC(C)N(CCc1c[nH]c2ccccc12)C(C)C [dipt] | 3.42 | > 10 | > 10 | > 10 | > 10 | 1.8 | Ki [3]: > 10 µM
24 | CCCN(CCC)CCc1c[nH]c2ccccc12 [dpt] | 0.284 | > 10 | > 10 | > 10 | > 10 | 0.397 | –
25 | C[C@@H]1C[C@@H](C)N1C(=O)C1C=C2c3cccc4[nH]cc(c34)C[C@H]2N(C)C1 (stereo partly drawn) [rr-2b] | – | – | – | – | – | – | Ki [13]: > 10 µM; Ki [14]: > 10 µM; Ki [7]: > 10 µM; Ki [15]: > 10 µM; Ki [16]: > 10 µM; Ki [8]: > 10 µM; Ki [9]: > 10 µM; Ki [10]: > 10 µM; Ki [11]: > 10 µM; Ki [17]: > 10 µM; Ki [12]: > 10 µM; Ki [18]: > 10 µM
26 | CAS_82830-44-2::(2R)-1-(4-iodo-2,5-dimethoxyphenyl)propan-2-amine::DOI,(-)::US20250270173, Compound DOI | 5.77 | 0.139 | > 10 | – | 0.578 | 8.56 | Ki [3]: 0.0458 µM; Ki [9]: > 10 µM; Ki [10]: > 10 µM; Ki [11]: > 10 µM

Source: BindingDB's records for PubMed 20126400 (University of Oklahoma, 2010)
